{
  "source": "patent US12636284B2",
  "about": "“Compositions for use in the prevention and/or treatment of intellectual disability and neurodegenerative diseases in a subject with down syndrome” (UNIVERSITA' DEGLI STUDI DI ROMA “LA SAPIENZA”, priority 2021, dated 2026)",
  "format_in_all_cases": "in vivo, mouse",
  "key": {"[1]": {"system": "β-amyloid peptide 1-42", "experiment": "ELISA Aβ 1-42 in hippocampus", "description": "The 3x-Tg mouse, an animal model commonly used for the study of Alzheimer's disease (n=2/group), was used as a positive control for the production of β-amyloid 1-42. Briefly, ˜10 mg of hippocampus was homogenized in DEA buffer (10 μL/mg tissue; 0.2% diethanolamine and 50 mM NaCl) to which the protease inhibitor cocktail (1:100; Millipore) was added. The sample was centrifuged at 15,000 rpm for 1 hour 30 min at 4° C., the supernatant was stored for measuring ß-amyloid 1-42 following the instructions given by the kit manufacturer. The calculations for the quantization of β-amyloid were carried out using GraphPad Prism 8.0 software (GraphPad, La Jolla, CA, USA)."}, "[2]": {"system": "DYRK1A protein", "experiment": "Western blot of DYRK1A protein levels in hippocampus", "conditions": "hippocampus of Ts2Cje mice, 21 days intranasal treatment", "description": "Finally, animals were sacrificed using cervical dislocation. […] For Western blots, 20 μg of proteins from the hippocampus of mice belonging to the four experimental groups were separated by 4-15% SDS-PAGE CriterionTM […] (Bio-rad, Hercules, CAUSE). […] Therefore, the gel, once the image has been acquired, represents the total of the loaded proteins (Total Load), which will then be used to normalize the specific proteins to be examined. After electrophoresis and gel imaging, proteins are transferred via the semi-dry TransBlot Turbo apparatus (Bio-Rad Laboratories) onto nitrocellulose membranes (Bio-Rad, Hercules, CA, USA). Nitrocellulose membranes are blocked with 3% bovine serum albumin (BSA) in a solution of Tween 20-TBS and incubated overnight at 4° C. using specific primary antibodies: p([…])-GSK3B (1:1000, Santa Cruz, #sc-135653), p(S9)-GSK3β (1:1000, Cell Signaling, #5558S), GSK3β (1:1000 Abcam, #93926) and DYRK1A (1:1000, Cell Signaling, #8765S), MAPK44/42 (1:1000, Cell Signaling, #9102), p[…])-MAPK44/42 (1 1000, Cell Signaling, #9101), Akt (1:2000, Bio-Rad, # vma00253K), p(S473) Akt (1:1000, Cell Signaling, #4060S). After three washes with a T-TBS buffer solution, membranes were incubated for 1 hour at room temperature with the secondary antibodies. […] Finally, the results obtained were analyzed using the ImageLab program (Bio-rad, Hercules, CA, USA)."}, "[3]": {"system": "spontaneous neurotransmitter release in Eu mice", "experiment": "Patch-clamp electrophysiology, CA1 neurons of hippocampal sections, euploid mice", "conditions": "after 21 days intranasal treatment", "from_the_text": "The brain sections containing the hippocampus were obtained from mice belonging to the four experimental groups (Eu Veh, Eu SITA, Ts2 Veh and Ts2 SITA) at 9 months of age after being euthanized by an overdose of isofluorane. Brains were quickly removed and placed in an ice-cold cutting solution containing the following (in mM): 124 NaCl, 3.2 KCl, 1 NaH2PO4, 2 MgCl2, 1 CaCl2), 26 NaHCO3, 10 glucose, 2 Na-pyruvate and 0.6 ascorbic acid, pH 7.4, 95% O2/5% CO2. The brain sections containing the hippocampus ([…]) were cut using a vibratome (VT1000S; Leica Microsystems) and immediately transferred to an incubation chamber filled with ACSF containing the following (in mM): 124 NaCl, 3.2 KCl, 1 NaH2PO4, 1 MgCl2, 2 CaCl2, 26 NaHCO3 and 10 glucose, pH 7.4, 95% O2/5% CO2. Brain sections were allowed to recover at 32° C. for 1 hour before being equilibrated to room temperature. For electrophysiological recordings, brain sections were transferred to a recording chamber constantly perfused with heated ACSF (32° C.) and bubbled with 95% O2/5% CO2. Subsequently, the slices were used for electrophysiological recordings. All electrophysiological recordings were performed using the patch-clamp technique in the whole-cell configuration. […] Membrane capacity and resistance were assessed in the same neurons. […]"}, "[4]": {"system": "GSK3b protein", "experiment": "Western blot of GSK3b activation (pS9/pT216) in hippocampus", "conditions": "brains (hippocampus) of Ts2Cje mice", "description": "For the duration of the treatment, the mice were weighed weekly in order to assess any weight changes. After 21 days of treatment, the animals underwent a behavioral test to assess their memory and learning abilities. After the behavioral test, metabolic parameters such as blood glucose (both fasting and under the glycemic curve), body surface area (BSA) and body mass index (BMI) were assessed. Finally, animals were sacrificed using cervical dislocation. The brain and peripheral areas were isolated and collected in liquid nitrogen and subsequently stored at −80° C. until they were used for biochemical analyzes.\nTotal protein extracts were prepared from the frontal cortex for human autopsy samples and from the hippocampus for mouse samples, using RIPA solution (pH 7.4) containing TrisHCl (50 mM, pH 7.4), NaCl (150 mM), 1% NP-40, 0.25% sodium deoxycholate, ethylenediamine tetracetic acid (EDTA) (1 mM), and 0.1% sodium dodecyl sulfate (SDS). […] For the rest of the experiments, protein extracts were supplemented with cocktails of protease and phosphatase inhibitors (Sigma Aldrich, St Louis, MO, USA). Brain tissues were homogenized in the solution described above by sonication, and centrifuged at 14,000 rpm for 30 min at 4° C. The supernatant was used to determine total protein concentration by means of the bicinchoninic acid assay (BCA, Pierce, Rockford, IL). […]"}},
  "data": [
    {"compound": "N[C@@H](CC(=O)N1CCn2c(nnc2C(F)(F)F)C1)Cc1cc(F)c(F)cc1F", "note": "[sitagliptin, (R)-4-oxo-4-[3-(trifluoromethyl)-5,6-dihydro[1,2,4]triazole[4,3-a]pyrazin-7(8H)-yl]-1-(2,4,5-trifluorophenyl)butan-2-amine]", "values": [
      {"measurement": "Ab (beta-amyloid 1-42) levels", "setting": "[1]", "value": "reduction"},
      {"measurement": "expression levels of the DYRK1A protein", "setting": "[2]", "value": "significant reduction"},
      {"measurement": "frequency and extent of spontaneous release of neurotransmitters", "setting": "[3]", "value": "no effect"},
      {"measurement": "activation of the GSK3b protein", "setting": "[4]", "value": "increased activation"}
    ]}
  ]
}
